Results taken from paper PMC7072329, “Discovery of Kynurenines Containing Oligopeptides as Potent Opioid Receptor Agonists” (Biomolecules, 2020).
Several values for one entry are separate records, joined by “and”; a condition that tells them apart may be missing. Equal entries are not always repeated. Where a SMILES comes first, the peptide text is derived from it. [ ]: non-standard residue; d: D form. Kyn = Nc1ccccc1C(=O)C[C@H](N)C(=O)O

Assays:
[1] = stability in human plasma; type: in vitro ADME; settings: 37 °C
Procedure: Five microliters of K6 (500 μg in 250 μL of water) were added to 45 μL of fresh human plasma, then incubated at 37 ± 1 °C. Prepared samples were removed at several designated time points and incubation was stopped by adding an equal volume of the sequencing mixture (5% aqueous ZnSO4 solution, MeOH, and ACN; 5:3:2), which precipitated proteins, to achieve a final concentration of 100 μg/mL. The mixture was vortexed and centrifuged at 12,000× g for 5 min, then 20 μL of clear supernatant was directly injected into the HPLC system (Waters model 600 solvent pump and 2996 photodiode array detector, with XBridge BEH 130 C18, 4.6 × 250 mm, 5 μm). The samples were tested in three independents experiments (n = 3) and reported values represent the mean ± standard error (SEM). Data were analysed using simple regression analysis (significant deviation from zero: F1,13 = 171.9, p < 0.0001; Y = −0.9705 × X + 95.98).
Five calibration standards were injected into the HPLC-UV/Vis system. HPLC analyses were performed on a Waters liquid chromatograph equipped with a model 600 solvent pump and a 2996 photodiode array detector, and the mobile phase was degassed directly on-line by using Degassex, mod. DG-4400 (Phenomenex, Torrance, CA, USA). Empower v2.0 Software (Waters Spa, Milford, MA, USA) was used for data acquisition and elaboration. A reversed-phase packing column (XBridge BEH 130 C18, 4.6 × 250 mm, 5 μm; Waters Spa, Milford, MA, USA) was employed for the separation and the column was held at room temperature (22 ± 1 °C). K6 remaining concentrations at different times are reported below. For quantitative analyses, selective detection was performed at 210 nm. Gradient elution mode was performed using a mobile phase containing a […] water-ACN ratio as starting conditions and gradient program as reported. […]
All the sample solutions were previously centrifuged and 20 µL of the supernatant was injected into the HPLC-UV/Vis system. Calibration curves from 2 to 10 μg/mL were calculated by analyzing five non-zero concentration standards prepared in freshly spiked plasma solution in triplicate and extracted. All quantitative analyses were performed at 210 nm. Calibration curves were linear with r2 values always greater than 0.988 (n = 3). In reported chromatographic conditions, the retention times for K6 was 16.45 minutes (± 0.4, n = 20), the substance identity was confirmed by LS-MS analysis.
Time ( minutes) K6 Concentration (µg/mL) K6% of degradation

G-protein = test: functional [35S]GTPγS binding, rat brain membrane homogenates; type: biochemical
Procedure: Rats and guinea pigs were decapitated, and their brains were quickly removed. The brains were used for membrane preparation following the procedure reported by Benyhe for binding and [^35S]GTPγS binding experiments, in agreement with the protocol of Zádor et al..
Homogenization of brains was performed in 30 volumes (v/w) of ice-cold 50 mM Tris-HCl pH 7.4 buffer with a Teflon-glass Braun homogenizer at 1500 rpm. The centrifuge was settled at 18,000 rpm for 20 min at 4 °C, the resulting supernatant discarded, and the pellet taken up in the original volume of Tris-HCl buffer. Incubation of homogenate at 37 °C for 30 min was performed in a shaking water-bath. Five volumes of 50 mM Tris-HCl pH 7.4 buffer were used to suspend the final pellet at −80 °C. For the [^35S]GTPγS binding experiments, the brains were homogenized with a Dounce in 5 volumes (v/w) of ice-cold TEM (Tris-HCl, EGTA, MgCl2) at −80 °C. The protein content of the membrane preparation was determined by the method of Bradford, BSA being used as a standard.
The functional [^35S]GTPγS binding experiments were performed as previously described. Briefly the membrane homogenates were incubated at 30 °C for 60 min in Tris-EGTA buffer (pH 7.4) composed of 50 mM Tris-HCl, 1 mM EGTA, 3 mM MgCl2, 100 mM NaCl, containing 20 MBq/0.05 cm^3 [^35S]GTPγS (0.05 nM) and increasing concentrations (10^−10 to 10^−5 M) of ligands. The experiments were performed in the presence of excess GDP (30 μM) in a final volume of 1 mL. Total binding was measured in the absence of test compounds, non-specific binding was determined in the presence of 10 μM unlabeled GTPγS. The reaction was terminated by rapid filtration under vacuum and washed three times with 5 mL ice-cold 50 mM Tris-HCl (pH 7.4) buffer through Whatman GF/B glass fibers. The radioactivity of the filters was detected in an UltimaGold^TM MV aqueous scintillation cocktail with a Packard Tricarb 2300TR liquid scintillation counter.
Experimental data are presented as means ± S.E.M. Sigmoid dose-response curves were fitted with GraphPad Prism 5.0 (GraphPad Prism Software Inc., San Diego, CA, USA). An unpaired t-test with two-tailed p value was performed to determine the significance level. In the competition binding assays, the ‘One site competition’ fitting was used to establish the equilibrium binding affinity (Ki value).
[35S]GTPγS binding assay in rat brain membrane homogenates. Figure S2 represents the specific binding of [35S]GTPγS in percentage in presence of increasing concentrations (10-10 - 10^-5 M) of the indicated ligands. “Total” on the x-axis indicates the basal activity of the monitored G-protein, which is measured in the absence of the ligands and represents the total specific binding of [35S]GTPγS. The level of basal activity was defined as 100% and it is presented with a dotted line. Points represent means ± S.E.M. for at least three experiments […]
Figure S3. The effect of novel oligopeptides on G-protein activity in [35S]GTPγS binding assays in the absence or presence of the selective MOR antagonist cyprodime (Cyp) and the selective DOR antagonist naltrindole (NTI) in rat brain membrane homogenates (Figure A) and the selective KOR antagonist norbinaltorphine (nor-BNI) in guinea pig brain membrane homogenates (Figure B). The level of basal activity was defined as 100% and it is presented with a dotted line. Points represent means ± S.E.M. for at least three experiments performed

C[C@@H](NC(=O)[C@@H](N)Cc1ccc(O)cc1)C(=O)NCC(=O)N[C@@H](Cc1ccccc1)C(=O)N[C@@H](CC(=O)c1ccccc1N)C(N)=O [Peptide K6] (H-Y[dA]GF[Kyn]-NH2)
K6% of degradation ([1]; 0 minutes): 0% | metabolised at 5 min, 200 μg/mL ([1]; fresh human plasma, 5 minutes, read-out: K6% of degradation): 7% | metabolised at 10 min, 200 μg/mL ([1]; fresh human plasma, 10 minutes, read-out: K6% of degradation): 15% | metabolised at 0.5 h, 200 μg/mL ([1]; fresh human plasma, 30 minutes, read-out: K6% of degradation): 36% | metabolised at 1 h, 200 μg/mL ([1]; fresh human plasma, 60 minutes, read-out: K6% of degradation): 56% | half-life at 200 μg/mL ([1]; plasma (fresh), linear regression, read-out: t1/2 in human plasma): 47 min | Potency Log EC50 ± S.E.M. (G-protein; dose-response curves): −5.984 ± 0.054 | Maximal Stimulation (Efficacy) Emax ± S.E.M. (G-protein; dose-response curves, basal = 100%): 209.7 ± 3.4% | Emax + S.E.M., Ligand (G-protein; ligand alone, bar graphs Figure S3): 211% and 211.7 ± 3.1%
